Columns and labels:
S. aureus Smith = assay: Antibacterial activity (MIC), S. aureus Smith; assay type: cell-based; conditions: Staphylococcus aureus
From the text: (§1) As used herein, a minimum inhibitory concentration (MIC) for bacterial growth assay is the lowest level of a compound needed to cause an inhibition to bacterial growth in culture medium. In certain embodiments, the antibacterial activity of compounds herein, measured as MIC.
(§2) In certain embodiments, GSK3 inhibitors provided herein are substantially free of antibacterial activity or having very low antibacterial activity. The antibacterial activity can be measured by methods known in the art by estimating a minimum inhibitory concentration (MIC) for test compounds. A MIC is the lowest level of a compound needed to cause an inhibition to bacterial growth in a culture medium. […] (Clinical and Laboratory Standards Institute. Methods for Dilution Antimicrobial Susceptibility Tests for Bacteria That Grow Aerobically; Approved Standard-Sixth Edition: CLSI document […]. CLSI, Wayne, Pa. (2003))
(§3) Antibacterial activity for E. coli, ATCC8739 and S. aures Smith is expressed as MIC (μM).

E. coli, ATCC8739 = assay: Antibacterial activity (MIC), E. coli; assay type: cell-based; conditions: Escherichia coli
From the text: as §1, §2, §3

[1] = molecular target: T1, recombinant full-length human GSK3β (Homo sapiens, UniProt P49841); assay: GSK3β enzyme cell free luciferase-coupled kinase assay; assay type: biochemical; conditions: 5 μM ATP
T1 construct: recombinant full-length human GSK3β (Upstate); purchased Upstate
Experimental: All coupled-luciferase assays are performed by using a brief incubation with firefly luciferase (Promega) after completion of the kinase assay. KinaseGlo Plus is used for reading kinase reactions with ATP>10 μM, KinaseGlo for ATP<10 μM. The assay volume in a 384-well plate for the kinase reaction is 30 microliters.
10-25 ng of recombinant full-length human GSK3β (Upstate) is incubated in the presence or absence of compound at varying concentrations for 1 hour at 30 degrees Celsius in 20 mM MOPS, pH 7.0, 10 mM magnesium acetate, 0.2 mM EDTA, 2 mM EGTA, 30 mM magnesium chloride, 62.5 μM phospho-glycogen synthase peptide-2, 5 μM ATP, 10 mM β-glycerol phosphate, 1 mM sodium orthovanadate and 1 mM dithiothreitol. Proceed to KinaseGlo luciferase reaction (see below).
Following the completion of the kinase reaction an equal volume of KinaseGlo or KinaseGlo Plus luciferase reagent (Promega) is added and the luminescence read using a luminescence plate reader within 5-10 minutes. Compound activity is expressed as % inhibition relative to maximal inhibition observed at the maximal dose and IC50 values then calculated using curve fitting software (GraphPad Prizm).

T1 sequence (P49841 whole entry): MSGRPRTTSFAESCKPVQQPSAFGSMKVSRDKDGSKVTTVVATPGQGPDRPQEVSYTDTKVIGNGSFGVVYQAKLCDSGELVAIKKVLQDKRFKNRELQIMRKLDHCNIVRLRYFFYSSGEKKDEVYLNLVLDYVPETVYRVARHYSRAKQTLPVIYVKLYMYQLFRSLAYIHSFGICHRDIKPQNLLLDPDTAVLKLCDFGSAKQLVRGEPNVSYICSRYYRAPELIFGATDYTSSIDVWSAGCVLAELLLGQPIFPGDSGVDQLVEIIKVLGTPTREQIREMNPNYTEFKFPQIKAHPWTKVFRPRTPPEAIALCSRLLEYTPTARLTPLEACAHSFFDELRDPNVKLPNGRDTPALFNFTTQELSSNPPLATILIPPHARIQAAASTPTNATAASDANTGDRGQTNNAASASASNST

**Q.** With C[C@H]1COc2c(NCCCn3ccnc3)c(F)c(N)c3c(=O)c(-c4nnn[nH]4)cn1c23 as the molecule, how does the MIC (S. aureus Smith) read?
**A.** The MIC was > 257 µM.

**Q.** What about the MIC (E. coli, ATCC8739) of the same molecule?
**A.** Its MIC is > 257 µM.

**Q.** And the IC50 [1]?
**A.** Its IC50 is 10 to 100 nM.

**Q.** CCN(CCCNc1c(F)c(N)c2c(=O)c(-c3nnn[nH]3)cn3c2c1OC[C@@H]3C)c1ccccc1 was tested. Which IC50 [1] did it give?
**A.** The IC50 was 10 to 100 nM.

**Q.** With C[C@H]1COc2c(NCCCc3ccccn3)c(F)c(N)c3c(=O)c(-c4nnn[nH]4)cn1c23 as the molecule, how does the IC50 [1] read?
**A.** The IC50 was < 10 nM.
